{
  "source": "patent US6090987A",
  "about": "“Metal-ligand complex catalyzed processes” (Union Carbide Chemicals & Plastics Technology Corporation, priority 1998, dated 2000)",
  "key": {"[1]": {"test": "Propylene hydroformylation rate and colour of (TPP)3 Rh(CO)H catalyst after thermal treatment", "details": "for hydroformylation rate: 100° C.", "experimental": "TPP is triphenylphosphine. 15 grams of this bright yellow solution was charged to a Fisher Porter bottle under inert gas. To this solution was added 20 psi of butadiene with stirring. The pressure dropped as the butadiene dissolved into the solution. The reactor was repressured twice with butadiene (20 psig) and then the reaction was place under a total of 45 psig with nitrogen. The solution was heated to 120° C. for 15 minutes. […] At ambient temperature, the reaction was placed under vacuum for 4 hours to remove any excess butadiene.\nSince the solvent has a very high boiling point, the concentration of rhodium was assumed to have remained unchanged while under vacuum. Indeed, no change in volume was detected visually while under vacuum. 15.0 milliliters of the 275 parts per million solution was charged to a 100 milliliter autoclave.\nThis example is a control for Example 23. 15 grams of the catalyst solution prepared in Example 23 was charged to a Fisher Porter bottle under inert gas. 45 psig of nitrogen was added to the reaction vessel, then the reaction was heated to 120° C. for 15 minutes. […] 15.0 milliliters of the 275 parts per million solution was charged to a 100 milliliter autoclave.\nA catalyst solution was prepared by adding 113 milligrams of (TPP)3 Rh(CO)H to 40.4 grams Filmer IBT® available from Union Carbide Corporation, Danbury, Conn., resulting in a rhodium concentration of 312 parts per million. At this point, the rhodium complex was a suspended in the solvent. Approximately 20 grams of this solution of (TPP)3 Rh(CO)H in tetraglyme was charged to a Fisher Porter bottle under inert gas. To this solution was added 30 psi of butadiene with stirring. The pressure dropped to 20 psig as the butadiene dissolved into the solution. The reactor was repressured twice with butadiene (30 psig) and then the pressure was adjusted to 60 psig with nitrogen. The solution was placed into 140° C. oil bath, which caused the reaction to become homogeneous within a minute. The reaction was maintained at 140° C. for 50 minutes. […] The reaction vessel was removed from the oil bath and the butadiene was vented from the reactor while the reaction was hot. After gas evolution ceased, the reaction vessel was placed carefully placed under dynamic vacuum until gas evolution had ceased for 10 minutes. The reaction was then placed under a slight positive pressure of nitrogen. […] 15.0 milliliters of the 284 parts per million solution was charged to a 100 milliliter autoclave.\nThis example serves as a control for Example 25. Approximately 20 grams of the solution prepared in Example 25 was charged to a Fisher Porter bottle under inert gas. 60 psig of nitrogen was added to the reaction vessel, then the reaction was heated to 140° C. for approximately 110 minutes. […] This solution was place into and out of the oil bath at the same time as the solution in Example 25. After thermal treatment, 10 weight percent of triphenylphosphine was added to the reaction mixture. […] 15 milliliters of the 284 parts per million solution was charged to a 100 milliliter autoclave."}, "[2]": {"test": "Decomposition of free Ligand F and deactivated complex formation at 145° C. by HPLC (FIG. 3)", "assay_type": "physicochemical", "details": "for deactivated complex concentration / free Ligand F concentration: 45 psig, treated with 1 ml 1,3-butadiene", "experimental": "A catalyst solution (5 milliliters), 600 parts per million in rhodium and 0.8 weight percent in Ligand F generated as in Example 2 was charged to a 3 ounce Fisher Porter bottle and alternately flushed evacuated with nitrogen, then placed in a 145° C. oil bath under nitrogen (80 psig total pressure) and then monitored by HPLC at 1 and 3 hours for the Ligand F and deactivated complex concentrations. The free Ligand F concentration was 0.75, 0.57 and 0.37 weight percent at 0, 1 and 3 hours, respectively, while the deactivated complex concentration was 0.010, 0.57 and 0.89 weight percent at 0, 1 and 3 hours respectively.\nThe same procedure as in Example 21 was followed except the catalyst solution was treated with 1 milliliter of 1,3-butadiene and then heated at 145° C. for 3 hours (45 psig total pressure). The free Ligand F concentration measured by HPLC (high pressure liquid chromatography) was 0.75, 0.66, and 0.62 weight percent at 0, 1 and 3 hours, respectively, while the deactivated complex concentration was 0.010, 0.012, and 0.05 weight percent at 0, 1 and 3 hours respectively."}, "[3]": {"test": "Long term catalyst stability, cycling between hydroformylation and simulated vaporizer conditions (Table 2, FIG. 2)", "details": "for Percent Deactivation/Day: butadiene 2 psi", "experimental": "A series of long term catalyst stability experiments were conducted in the glass reactors in a continuous propylene hydroformylation mode. The reactor consisted of a three ounce pressure bottle submersed in an oil bath with a glass front for viewing. In each example about 20 milliliters of a freshly prepared rhodium catalytic precursor solution was charged to the reactor with a syringe after purging the system with nitrogen. Each precursor solution contained 200 parts per million of rhodium (calculated as free rhodium) introduced as rhodium dicarbonyl acetylacetonate, Ligand F and tetraglyme. The amount of Ligand F (free) employed was 0.4 weight percent.\nAfter closing the reactor, the system was again purged with nitrogen and the oil bath was heated to 80° C., in order to furnish the desired hydroformylation. The hydroformylation reaction in each experiment was conducted at a total gas pressure of about 165 psig, the target partial pressure pressures of hydrogen, carbon monoxide, and propylene being about 45 psia, 45 psia, and 5 psia, respectively, the remainder being nitrogen. The flows of the feed gases (carbon monoxide, hydrogen, propylene, and nitrogen) were controlled individually with mass flow meters. The feed gases were dispersed into the precursor solution via stainless steel 7-micron filters used as spargers. The unreacted portion of the feed gases stripped out the product aldehydes. Examples 14, 15 and 16 were conducted at 80° C. for 2 hours. The feed gases were then turned off and either pure nitrogen or an 88 mole percent nitrogen, 12 mole percent butadiene mixture was fed to the reactor (see Table 2). The pressure of the reactor was then let down to the appropriate pressure so that the target butadiene pressure in the reactor could be achieved. The oil bath temperature was then ramped to 125° C. over a 5 minute period. The bath remained at 125° C. for 10 minutes. The bath was then cooled to 80° C. over a 6 minute period. […]"}},
  "data": [
    {"smiles": "C=CC=C", "note": "[Butadiene, 1,3-butadiene]", "values": [
      {"measurement": "color change of catalyst solution", "setting": "[1]; 120° C. for 15 minutes under butadiene/nitrogen", "result": "No color change was observed"},
      {"measurement": "color of catalyst solution", "setting": "[1]; 140° C. for 50 minutes under butadiene/nitrogen", "result": "maintained a bright yellow color"},
      {"measurement": "color change of catalyst solution", "setting": "[1]; 140° C. for further 60 minutes, butadiene removed", "result": "no observable color change"},
      {"measurement": "hydroformylation rate", "setting": "[1]; after 120° C. for 15 minutes with butadiene, 275 ppm Rh, 9.1 wt% triphenylphosphine, 115 psig", "result": 1.4, "unit": "gmol/L-h"},
      {"measurement": "hydroformylation rate", "setting": "[1]; after 140° C. for 50 minutes with butadiene and 60 minutes after venting, 284 ppm Rh, 95 psig", "result": 1.0, "unit": "gmol/L-h"},
      {"measurement": "deactivated complex concentration", "setting": "[2]; 0 hours", "result": 0.010, "unit": "weight percent"},
      {"measurement": "free Ligand F concentration", "setting": "[2]; 0 hours", "result": 0.75, "unit": "weight percent"},
      {"measurement": "deactivated complex concentration", "setting": "[2]; 1 hour", "result": 0.012, "unit": "weight percent"},
      {"measurement": "free Ligand F concentration", "setting": "[2]; 1 hour", "result": 0.66, "unit": "weight percent"},
      {"measurement": "deactivated complex concentration", "setting": "[2]; 3 hours", "result": 0.05, "unit": "weight percent"},
      {"measurement": "free Ligand F concentration", "setting": "[2]; 3 hours", "result": 0.62, "unit": "weight percent"},
      {"measurement": "decomposition of free Ligand F (FIG. 3)", "setting": "[2]; prior complexation of catalyst with butadiene", "result": "suppresses decomposition of free Ligand F"},
      {"measurement": "influence on the catalyst (FIG. 2)", "setting": "[3]; cycling between 80° C. hydroformylation and 125° C. simulated vaporizer", "result": "stabilizing influence"},
      {"measurement": "Percent Deactivation/Day", "setting": "[3]; separation temperature 125° C., butadiene/Rh molar ratio 45", "result": 5, "unit": "Percent/Day"},
      {"measurement": "Percent Deactivation/Day", "setting": "[3]; separation temperature 135° C., butadiene/Rh molar ratio 55", "result": 5, "unit": "Percent/Day"}
    ]}
  ]
}
